From ChEMBL document CHEMBL1201862, “PubChem BioAssay data set” (2004)
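Growth conditions: 96-well plates. Treatment: test compound, 48 hours, 5 concentrations. Analysis: linear interpolation between bracketing concentrations; unreached endpoints set to highest concentration. GI50 marks 50% less growth.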 Active and inactive are the calls of the source. No stated cut-off is given here; in the data, active = GI50 up to about 1.1 µM and inactive = higher.

Key:
Assay in all cases: DTP human tumour cell line panel, 48 h
[1] = system: A549
[2] = system: ACHN
[3] = system: CCRF-CEM
[4] = system: COLO 205
[5] = system: Hs-578T
[6] = system: IGROV-1
[7] = system: M14
[8] = system: MDA-N
[9] = system: Malme-3M
[10] = system: NCI-H23
[11] = system: OVCAR-3
[12] = system: RXF 393
[13] = system: SF-268
[14] = system: SK-MEL-28
[15] = system: SNB-75
[16] = system: SR
[17] = system: SW-620
[18] = system: UACC-257
[19] = system: UACC-62
[20] = system: UO-31

Row | SMILES | GI50 [1] | GI50 [2] | GI50 [3] | GI50 [4] | GI50 [5] | GI50 [6] | GI50 [7] | GI50 [8] | GI50 [9] | GI50 [10] | GI50 [11] | GI50 [12] | GI50 [13] | GI50 [14] | GI50 [15] | GI50 [16] | GI50 [17] | GI50 [18] | GI50 [19] | GI50 [20]
1 | O=C(Nc1ccn(C2CCC(COC(c3ccccc3)(c3ccccc3)c3ccccc3)O2)c(=O)n1)c1ccccc1 (stereo not given) | 4.21 µM (inactive) | 3.8 µM (inactive) | 3.28 µM (inactive) | 1.77 µM (inactive) | 3.54 µM (inactive) | 6.04 µM (inactive) | 3.48 µM (inactive) | 3.57 µM (inactive) | 3.18 µM (inactive) | 2.31 µM (inactive) | 2.4 µM (inactive) | 2.9 µM (inactive) | 7.64 µM (inactive) | 9.23 µM (inactive) | 2.39 µM (inactive) | 2.34 µM (inactive) | 4.94 µM (inactive) | 6.81 µM (inactive) | 5.5 µM (inactive) | 5.3 µM (inactive)
2 | Cc1ccc(NC(=O)c2ccc(OP(=O)(O)Nc3ccc(C)cc3)cc2)cc1 | > 100 µM (inactive) | > 100 µM (inactive) | > 100 µM (inactive) | > 100 µM (inactive) | 92.7 µM (inactive) | > 100 µM (inactive) | 64.4 µM (inactive) | > 100 µM (inactive) | > 100 µM (inactive) | > 100 µM (inactive) | > 100 µM (inactive) | 50.7 µM (inactive) | > 100 µM (inactive) | > 100 µM (inactive) | > 100 µM (inactive) | > 100 µM (inactive) | > 100 µM (inactive) | > 100 µM (inactive) | > 100 µM (inactive) | 66.8 µM (inactive)
3 | CCCCCNC(=O)c1cc2cc(CCl)ccc2oc1=O | 4.65 µM (inactive) | 2.01 µM (inactive) | > 100 µM (inactive) | 1.33 µM (inactive) | 6.37 µM (inactive) | 4.71 µM (inactive) | 9.12 µM (inactive) | 9.42 µM (inactive) | 2.36 µM (inactive) | 2.62 µM (inactive) | 8.02 µM (inactive) | 0.798 µM (active) | 3.19 µM (inactive) | 9.42 µM (inactive) | 4.44 µM (inactive) | 5.38 µM (inactive) | > 49.7 µM (inactive) | 2.04 µM (inactive) | 2.45 µM (inactive) | 1.63 µM (inactive)
4 | CC(C)(C)[Si](C)(C)OCC1OC(n2cnc3c(N)ncnc32)C(O)C1O (stereo not given) | > 100 µM (inactive) | > 100 µM (inactive) | 95.9 µM (inactive) | > 100 µM (inactive) | 44.5 µM (inactive) | > 100 µM (inactive) | > 100 µM (inactive) | > 100 µM (inactive) | > 100 µM (inactive) | 71 µM (inactive) | 76 µM (inactive) | 36.7 µM (inactive) | > 100 µM (inactive) | > 100 µM (inactive) | 59.8 µM (inactive) | 60.8 µM (inactive) | > 100 µM (inactive) | > 100 µM (inactive) | 22.1 µM (inactive) | 65.6 µM (inactive)
5 | COc1ccc2[nH]c(Cl)c(/C=C3/C(=O)N(c4ccccc4)c4ccccc43)c2c1 | 5.31 µM (inactive) | 7.57 µM (inactive) | 2.96 µM (inactive) | 2.18 µM (inactive) | 4.74 µM (inactive) | 4.84 µM (inactive) | 3.66 µM (inactive) | 1.6 µM (inactive) | 6.76 µM (inactive) | 4.06 µM (inactive) | 3.37 µM (inactive) | 15.9 µM (inactive) | 5.08 µM (inactive) | 8.49 µM (inactive) | 12.3 µM (inactive) | 2.65 µM (inactive) | 3.78 µM (inactive) | 7.13 µM (inactive) | 5.21 µM (inactive) | 7.59 µM (inactive)
6 | CC(NCc1c(O)ccc2ccc(=O)oc12)C(=O)O (stereo not given) | > 100 µM (inactive) | > 100 µM (inactive) | > 100 µM (inactive) | > 100 µM (inactive) | > 100 µM (inactive) | > 100 µM (inactive) | > 100 µM (inactive) | > 100 µM (inactive) | > 100 µM (inactive) | > 100 µM (inactive) | > 100 µM (inactive) | > 100 µM (inactive) | > 100 µM (inactive) | > 100 µM (inactive) | > 100 µM (inactive) | > 100 µM (inactive) | > 100 µM (inactive) | > 100 µM (inactive) | > 100 µM (inactive) | > 100 µM (inactive)
7 | CO[C@H]1O[C@@H]2OC3(C)CCC4[C@H](C)CCC([C@H]1C)[C@]42OO3 (stereo not given in full) | > 100 µM (inactive) | > 100 µM (inactive) | 19.1 µM (inactive) | 28.2 µM (inactive) | > 100 µM (inactive) | > 100 µM (inactive) | > 100 µM (inactive) | > 100 µM (inactive) | > 100 µM (inactive) | > 100 µM (inactive) | 78.9 µM (inactive) | > 100 µM (inactive) | > 100 µM (inactive) | > 100 µM (inactive) | 85.9 µM (inactive) | 56.2 µM (inactive) | > 100 µM (inactive) | > 100 µM (inactive) | > 100 µM (inactive) | 24.8 µM (inactive)
8 | Cc1cc(C)c2c(O)cc(-c3ccc4ccccc4c3)nc2n1 | 12.5 µM (inactive) | 46 µM (inactive) | 11.6 µM (inactive) | 18.3 µM (inactive) | 16.4 µM (inactive) | 12.6 µM (inactive) | 17.3 µM (inactive) | 3.34 µM (inactive) | 21.6 µM (inactive) | 30.8 µM (inactive) | 32.4 µM (inactive) | 71.6 µM (inactive) | 57.3 µM (inactive) | > 47.4 µM (inactive) | 15.8 µM (inactive) | 5.98 µM (inactive) | 15.2 µM (inactive) | 21.2 µM (inactive) | 14.7 µM (inactive) | 22.9 µM (inactive)
